Reference: patent publication US11919902B2, “Aryl-bipyridine amine derivatives as phosphatidylinositol phosphate kinase inhibitors” (HiberCell, Inc., priority 2017, dated 2024)
Each block holds one compound with its values, some of them ahead of it.

Experiments:
[1] = target: T1, GST tagged PIP4KtypeIIA (Homo sapiens, UniProt P48426); assay: ADP-glo kinase assay PIP4K 2A (PIP4KtypeIIA inhibition assay); assay type: biochemical; details: Table 3; compounds listed under IC50 range headings; 10 uM ATP, 0.5 nM PIP4KIIA
T1 construct: made in house; host or cells: E. coli
T1 sequence (P48426 1-406): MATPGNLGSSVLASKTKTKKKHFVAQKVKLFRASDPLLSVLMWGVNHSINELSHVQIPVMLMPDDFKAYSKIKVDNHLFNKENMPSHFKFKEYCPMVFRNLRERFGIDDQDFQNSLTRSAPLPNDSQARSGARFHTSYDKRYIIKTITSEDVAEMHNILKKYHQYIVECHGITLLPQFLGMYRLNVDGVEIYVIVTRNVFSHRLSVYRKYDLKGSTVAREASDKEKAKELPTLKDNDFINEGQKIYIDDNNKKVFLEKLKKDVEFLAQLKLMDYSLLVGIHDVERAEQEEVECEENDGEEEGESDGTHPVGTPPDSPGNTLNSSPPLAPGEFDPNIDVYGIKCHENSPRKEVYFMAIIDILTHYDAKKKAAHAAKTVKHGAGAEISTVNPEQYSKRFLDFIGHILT
How it was run: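 E. coli-expressed GST-PIP4KtypeIIA (0.5 nM final) was preincubated 1 h at 27 °C with compound (up to 4.8 μM, 5% DMSO) in PI5P/DOPE lipid in 50 mM HEPES pH 7.3 with 10 mM MgCl2. The reaction was started with 10 μM ATP (final) and run 1 h. ADP was read by ADP-Glo luminescence via a calibration curve, and IC50 was taken from % residual activity.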

[2] = target: T2, GST tagged PIP4KtypeIIB (Homo sapiens, UniProt P78356); assay: Trans-FI P kinase assay PIP4K2B (PIP4KtypeIIB inhibition assay); assay type: biochemical; details: Table 4; compounds listed under IC50 range headings; 100 uM GTP, 5 nM PIP4KIIB; read-out: Trans-FI P kinase assays: PIP4K2B IC50
T2 construct: made in house; host or cells: E. coli
T2 sequence (P78356 1-416): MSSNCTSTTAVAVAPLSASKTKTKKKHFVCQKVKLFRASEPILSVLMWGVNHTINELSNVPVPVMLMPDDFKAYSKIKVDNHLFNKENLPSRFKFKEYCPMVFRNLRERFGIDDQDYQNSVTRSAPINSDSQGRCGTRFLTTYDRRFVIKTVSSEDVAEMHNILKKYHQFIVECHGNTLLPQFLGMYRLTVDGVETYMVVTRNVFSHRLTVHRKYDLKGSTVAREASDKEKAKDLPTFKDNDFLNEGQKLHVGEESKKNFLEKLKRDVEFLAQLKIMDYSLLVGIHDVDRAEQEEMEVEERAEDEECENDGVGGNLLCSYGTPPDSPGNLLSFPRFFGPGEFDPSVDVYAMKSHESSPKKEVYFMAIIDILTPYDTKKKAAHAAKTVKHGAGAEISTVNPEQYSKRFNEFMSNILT
How it was run: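 Purified GST-PIP4KIIB (5 nM final), 1 h preincubation with compound at 27 C, then 2 h reaction with 100 uM GTP and 80 uM PI5P plus DOPE carrier lipid in pH 7.3 HEPES/MgCl2/Triton buffer with 5% DMSO. GDP read by Transcreener FI fluorescence against a calibration curve; IC50 from % no-inhibitor activity vs log concentration.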

Structure (SMILES): CN(C)C(=O)c1cnc2c(c1)c(-c1cncc(-c3ccc(N4CCCC4=O)cc3)c1)c(C1CC1)n2C [Example 262, 2-cyclopropyl-N,N,1-trimethyl-3-(5-(4-(2-oxopyrrolidin-1-yl)phenyl)pyridin-3-yl)-1H-pyrrolo[2,3-b]pyridine-5-carboxamide]
IC50 [1]: 2500 to 5000 nM
IC50 [2]: 100 to 1000 nM

Structure (SMILES): Cn1c(C(N)=O)cc2c(-c3cncc(-c4ccc(N5CCCC5=O)cc4)c3)cn(C)c2c1=O [Example 263, 1,6-dimethyl-7-oxo-3-(5-(4-(2-oxopyrrolidin-1-yl)phenyl)pyridin-3-yl)-6,7-dihydro-1H-pyrrolo[2,3-c]pyridine-5-carboxamide]
IC50 [1]: 1000 to 2500 nM
IC50 [2]: 1000 to 2500 nM

Structure (SMILES): CC(C)c1c(-c2cncc(-c3ccc(N4CCCC4=O)cc3)c2)c2cc(C(=O)N(C)C)cnc2n1C [Example 266, 2-isopropyl-N,N,1-trimethyl-3-(5-(4-(2-oxopyrrolidin-1-yl)phenyl)pyridin-3-yl)-1H-pyrrolo[2,3-b]pyridine-5-carboxamide]
IC50 [1]: 2500 to 5000 nM
IC50 [2]: 1000 to 2500 nM

Structure (SMILES): CC(C)c1[nH]c2ncc(C(=O)N(C)C)cc2c1-c1cncc(-c2ccc(N3CCCC3=O)cc2)c1 [Example 269, 2-isopropyl-N,N-dimethyl-3-(5-(4-(2-oxopyrrolidin-1-yl)phenyl)pyridin-3-yl)-1H-pyrrolo[2,3-b]pyridine-5-carboxamide]
IC50 [1]: 100 to 1000 nM
IC50 [2]: 100 to 1000 nM

Structure (SMILES): CC(C)c1cc(=O)n2ncc(-c3cncc(-c4ccc(N5CCCC5=O)cc4)c3)c2[nH]1 [Example 281, 5-isopropyl-3-(5-(4-(2-oxopyrrolidin-1-yl)phenyl)pyridin-3-yl)pyrazolo[1,5-a]pyrimidin-7(4H)-one]
IC50 [1]: 1000 to 2500 nM
IC50 [2]: 1000 to 2500 nM

Other lines, results leading:

IC50 [1]: 100 to 1000 nM
IC50 [2]: 10 to 100 nM
Structure (SMILES): O=C(NCCc1cnccn1)c1cc2c(-c3cncc(-c4ccc(N5CCCC5=O)cc4)c3)ccnc2[nH]1 [Example 255, 4-(5-(4-(2-oxopyrrolidin-1-yl)phenyl)pyridin-3-yl)-N-(2-(pyrazin-2-yl)ethyl)-1H-pyrrolo[2,3-b]pyridine-2-carboxamide]

IC50 [1]: 100 to 1000 nM
IC50 [2]: 10 to 100 nM
Structure (SMILES): O=C(NCCc1nccs1)c1cc2c(-c3cncc(-c4ccc(N5CCCC5=O)cc4)c3)ccnc2[nH]1 [Example 256, 4-(5-(4-(2-oxopyrrolidin-1-yl)phenyl)pyridin-3-yl)-N-(2-(thiazol-2-yl)ethyl)-1H-pyrrolo[2,3-b]pyridine-2-carboxamide]

IC50 [1]: 100 to 1000 nM
IC50 [2]: 100 to 1000 nM
Structure (SMILES): CN(C)C(=O)c1cc2c(-c3cncc(-c4ccc(N5CCCC5=O)cc4)c3)cn(C)c2c(=O)n1C [Example 260, N,N,1,6-tetramethyl-7-oxo-3-(5-(4-(2-oxopyrrolidin-1-yl)phenyl)pyridin-3-yl)-6,7-dihydro-1H-pyrrolo[2,3-c]pyridine-5-carboxamide]

IC50 [1]: 100 to 1000 nM
IC50 [2]: 10 to 100 nM
Structure (SMILES): O=C(NCCc1ccc[nH]1)c1cc2c(-c3cncc(-c4ccc(N5CCCC5=O)cc4)c3)ccnc2[nH]1 [Example 261, N-(2-(1H-pyrrol-2-yl)ethyl)-4-(5-(4-(2-oxopyrrolidin-1-yl)phenyl)pyridin-3-yl)-1H-pyrrolo[2,3-b]pyridine-2-carboxamide]

IC50 [1]: 100 to 1000 nM
IC50 [2]: 10 to 100 nM
Structure (SMILES): O=C(NC1CC1c1ccccc1)c1cc2c(-c3cncc(-c4ccc(N5CCCC5=O)cc4)c3)ccnc2[nH]1 (stereo not drawn) [Example 264, 4-(5-(4-(2-oxopyrrolidin-1-yl)phenyl)pyridin-3-yl)-N-(2-phenylcyclopropyl)-1H-pyrrolo[2,3-b]pyridine-2-carboxamide]

IC50 [1]: 10 to 100 nM
IC50 [2]: 100 to 1000 nM
Structure (SMILES): CN(C)C(=O)c1cnc2occ(-c3cncc(-c4ccc(N5CCCC5=O)cc4)c3)c2c1 [Example 282, N,N-dimethyl-3-(5-(4-(2-oxopyrrolidin-1-yl)phenyl)pyridin-3-yl)furo[2,3-b]pyridine-5-carboxamide]

IC50 [1]: 10 to 100 nM
IC50 [2]: 10 to 100 nM
Structure (SMILES): O=C1CCCN1c1ccc(-c2cncc(-c3n[nH]c4ncc(C5CC5)cc34)c2)cc1 [Example 283, 1-(4-(5-(5-cyclopropyl-1H-pyrazolo[3,4-b]pyridin-3-yl)pyridin-3-yl)phenyl)pyrrolidin-2-one]
